Patent publication US20070292967A1, “Assay for Ligands of the Ecdysone Receptor” (COMMONWEALTH SCIENTIFIC AND INDUSTRIAL RESEARCH OR, priority 2003, published 2007)

Tests used:
Format in all cases: binding
BtLBD [1] = molecular target: T1, BtLBD (Bemisia tabaci, UniProt A0A142K0N3); experiment: FP competitive inhibition assay with MB4628 tracer, BtLBD; conditions: 6 nM functional BtLBD, 36 nM MB4628, 2 mM CHAPS, Cheng-Prusoff; read-out: FP-derived Ki, BtLBD
Procedure: (§1) For competitive inhibition assays, each well contained standard FP assay buffer containing 36 nM MB4628 and either 5 nM functional MpLBD or 6 nM functional BtLBD. The BtLBD assays, but not the MpLBD ones, were routinely done in the presence of 2 mM CHAPS. The final volume of all assays were 250 μl.
(§2) The inhibitor concentration at this midpoint was deemed to be the IC50 value for the inhibitor. IC50 values were converted to Ki values using the Cheng-Prusoff equation (Cheng & Prusoff, 1973), as follows: Ki=IC50/(1+([MB4628]tot/Kd)) where [MB-4628]tot is the total concentration of MB4628 in the assay, and Kd is the dissociation constant for MB4628 with the relevant receptor under the conditions of the assay. The Kd values for use in this equation were calculated from the basic FP titration curves (FIG. 3) using the knowledge that the receptor concentration at the titration midpoint is the value at which the receptor is half-saturated with MB4628. The Kd is the free MB4628 concentration at this point, and must therefore be: Kd=[MB4628]tot−([receptor]midpoint)/2

MpLBD [2] = molecular target: T2, MpLBD (Myzus persicae, UniProt A3EZJ9); experiment: miniaturized automated radioligand-based competition assay, MpLBD; conditions: 1.3 nM [3H]ponasterone A, no CHAPS, read-out: Ki from radioligand-based MpLBD assay
T2 sequence (A3EZJ9 70-308): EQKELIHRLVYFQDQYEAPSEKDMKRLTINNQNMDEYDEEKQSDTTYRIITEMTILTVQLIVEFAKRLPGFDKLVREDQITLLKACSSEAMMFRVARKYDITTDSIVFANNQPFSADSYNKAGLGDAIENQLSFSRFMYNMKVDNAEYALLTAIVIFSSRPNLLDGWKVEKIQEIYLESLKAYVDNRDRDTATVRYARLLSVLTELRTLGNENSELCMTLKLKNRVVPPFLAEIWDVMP
T2 sequence (A3EZK0 32-259 partner): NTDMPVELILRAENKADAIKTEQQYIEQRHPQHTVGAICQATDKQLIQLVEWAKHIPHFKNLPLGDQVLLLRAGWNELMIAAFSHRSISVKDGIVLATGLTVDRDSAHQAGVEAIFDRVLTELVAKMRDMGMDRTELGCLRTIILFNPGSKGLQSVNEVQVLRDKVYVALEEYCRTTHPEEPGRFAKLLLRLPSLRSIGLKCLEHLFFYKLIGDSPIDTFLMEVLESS
Procedure: (§3) Subsequently, a miniaturized and automated version of the radioligand-based competition assay was used with MpLBD and BtLBD to obtain Ki values for the non-radioactive, non-fluorescent ecdysteroids that would later be used to validate the competitive inhibition format of the FP assay. While the concept of the assay was unchanged from that described above, some aspects of its execution were different. […] The mixtures were again allowed to reach equilibrium, but this time for 4 h at room temperature. The MpLBD was then captured on a 96-filter array (Unifilter-96 GF/C, Packard, Cat. No. 6005174) and rinsed using the wash tool and vacuum block of the Biomek 2000. The back of each filter-plate was then manually sealed using a sheet of Packard BackSeal, and 25 μl Packard MicroScint-20 scintillation fluid was dispensed into each well. The top of each plate was sealed with Packard TopSeal-A and the filters were allowed to solvate overnight. […] Since the amount of bound radioactivity was at most 28% of the total present, no additional corrections for ligand depletion were applied.

MpLBD [3] = molecular target: T2, MpLBD; experiment: FP competitive inhibition assay with MB4628 tracer, MpLBD; conditions: 5 nM functional MpLBD, 36 nM MB4628, no CHAPS, Cheng-Prusoff; read-out: FP-derived Ki, MpLBD
Procedure: as §1, §2

BtLBD [4] = molecular target: T1, BtLBD; experiment: miniaturized automated radioligand-based competition assay, BtLBD; conditions: 1.3 nM [3H]ponasterone A, no CHAPS, read-out: Ki from radioligand-based BtLBD assay
Procedure: as §3

[5] = molecular target: MpLBD, recombinant M. persicae ecdysone receptor (Myzus persicae, UniProt A3EZJ9); experiment: manual radioligand-based competitive inhibition assay ([3H]ponasterone A), MpLBD
Procedure: The ability of inokosterone and fluorescent conjugates thereof to bind to recombinant M. persicae ecdysone receptor was assessed using the conventional radioligand binding assay in a competetive inhibition format (adapted from Koelle et al., 1991).
These procedures were performed manually, as follows. Assays were performed in EcR40 buffer [25 mM Hepes, 40 mM KCl, 10% glycerol, 1 mM sodium EDTA, 3 mM sodium azide] containing 0.5 mg/ml bovine serum albumin (BSA). An extract containing recombinant M. persicae edcdysone receptor, MpLBD, was prepared as described above and diluted in EcR40 buffer containing 0.5 mg/ml BSA to a concentration that generated filter counts around 10 000 cpm when the assay was done in the absence of competing ligands. […] Assays were set up to contain different final concentrations of fluorescent ecdysteroid by including the appropriate volumes of the relevant stock solutions. […] Each incubation was performed in a final volume of […] at room temperature (22° C.) for 90 min, whereupon it was held on ice until the filter adsorption/wash steps could be performed. Three 140 μl aliquots from each completed incubation were applied to glass microfibre filters (GF/C 24 mm diameter, Whatman, Cat. No. 1822024); i.e., every incubation generated three filters, each of which had been wet using 140 μl of the incubation mixture. After exposure to the liquid for 30 sec at room temperature, the wet filter was transferred to a vacuum sinter apparatus (Pyrex Filter Holder, Millipore Corp., Cat. No. XX1002500) and washed rapidly. Washing was done using 2×5 ml of ice-cold EcR40 buffer, intersperced with 3×0.5 ml buffer applied around the circumference of the filter to ensure that its edges were thoroughly rinsed. The damp filter was then transferred to a scintillation vial. When all the filters had been thus processed, 7 ml Packard InstaGel Plus scintillant was added to each scintillation vial. The sealed vials were vortexed and then incubated at room temperature for at least 2 h, during which time the filters became transparent. The vials were then scintillation counted (1 min per filter, tritium program, Packard TriCarb 2100TR scintillation counter). Datapoints were reported as the mean cpm value ±SEM for the three replicate filters arising from each incubation.
The inhibitor concentration at this midpoint was deemed to be the IC50 value for the inhibitor.

Compound | Ki (BtLBD [1]) [nM] | Ki (MpLBD [2]) [nM] | Ki (MpLBD [3]) [nM] | Ki (BtLBD [4]) [nM] | Ki [5] [nM] | ability to compete with [3H]ponasterone A / bind to MpLBD (in words) ([5]; radioligand-based assay)
2β,3β,14α,20R,22R,25-hexahydroxy-5β-cholest-7-ene-6-one [20-hydroxyecdysone] | 994 | 100 | 1490 | 240 | – | –
CC(C)CC[C@@H](O)[C@](C)(O)[C@H]1CC[C@@]2(O)C3=CC(=O)[C@]4(O)C[C@@H](O)[C@@H](O)C[C@]4(C)[C@H]3[C@H](O)C[C@]12C [muristerone A] | 27 | 30 | 149 | 5.3 | – | –
COc1ccc2cc(NC(=O)OCC(C)CC[C@@H](O)C(C)(O)C3CC[C@@]4(O)C5=CC(=O)[C@@H]6C[C@@H](O)[C@@H](O)CC6(C)C5CCC34C)c(=O)oc2c1 (some centres unmarked) [MB4603] | – | – | – | – | 40 | unimpaired
CC(CO)CC[C@@H](O)[C@](C)(O)[C@H]1CC[C@@]2(O)C3=CC(=O)[C@@H]4C[C@@H](O)[C@@H](O)C[C@]4(C)[C@H]3CC[C@]12C (some centres unmarked) [inokosterone] | – | – | – | – | 65 | –
